Some results are limits rather than exact numbers.

Assay [1] relates to TYK2 pseudokinase (JH2); IFNα-stimulated HEK-Blue IFNα/β cells. Put plainly: HEK-Blue IFNα/β reporter assay (STAT1-inducible SEAP) for profiling TYK2 pseudokinase (JH2) inhibition. Format: cell-based. The note with it: 1 ng/mL human recombinant IFNα, SEAP readout, read-out: IFNα (TYK2 inhibitory activity, IC50). The method, then: (§1) Example B-1: HEK-Blue™ IL-23 and IFNα/β Reporter Assays for Profiling TYK2 Pseudokinase (JH2) Inhibition
(§2) HEK-Blue™ IL-23 and IFNα/β cells with a stably-integrated cytokine receptor and STAT3 or STAT1 express STAT-inducible secreted embryonic alkaline phosphatase (SEAP) reporter gene upon cytokine stimulation. These cells are plated in DMEM (Gibco) containing 10% heat-inactivated FBS (Gibco) and 100 U/mL PenStrep (Gibco) at 37° C. under 5% CO2 conditions for 20-22 hours. The cells are then pretreated with serially diluted test compounds for 60 min prior to stimulation with either 10 ng/mL human recombinant IL-23 (Miltenyl Biotech) or 1 ng/mL human recombinant IFNα (InvivoGen) for 22-24 hours for IL-23 or 16-18 h for IFNα. SEAP induction is measured using the QUANTI Blue™ Solution (InvivoGen) according to the manufacturer's instructions.

Assay [2] has as its system IFNγ-stimulated HEK-Blue IFNγ reporter cells. The assay is described as follows: HEK-Blue IFNγ reporter assay (STAT1-inducible SEAP) for determining selectivity. To be noted: 50 ng/mL human recombinant IFNγ, 24 hours, read-out: IFN-γ SEAP selectivity assay IC50. Format: cell-based. The method, then:
(§3) Example B-3: HEK-Blue™ IL-2 and IFNγ Reporter Assays for Determining Selectivity
(§4) HEK-Blue™ IL-2 and IFNγ reporter cells with a stably-integrated cytokine receptor and STAT5 or STAT1 express STAT-inducible secreted embryonic alkaline phosphatase (SEAP) reporter gene upon cytokine stimulation. These cells were plated in DMEM (Gibco) containing 10% heat-inactivated FBS (Gibco) and 100 U/mL PenStrep (Gibco) at 37° C. under 5% CO2 conditions for 20-22 hours. The cells were then pretreated with serially diluted test compounds for 60 min prior to stimulation with either 4 ng/mL human recombinant IL-2 (Miltenyl Biotech) or 50 ng/mL human recombinant IFNγ (InvivoGen) for 24 hours. SEAP induction was measured using the QUANTI-Blue™ Solution (InvivoGen) according to the manufacturer's instructions.
(Reporter assays use an easily measured gene product as a stand-in for the process of interest.)

The subject of assay [3] is TYK2 pseudokinase (JH2); IL-23-stimulated HEK-Blue IL-23 cells. The assay is described as follows: HEK-Blue IL-23 reporter assay (STAT3-inducible SEAP) for profiling TYK2 pseudokinase (JH2) inhibition. The note with it: 10 ng/mL human recombinant IL-23, SEAP readout, read-out: IL23 (TYK2 inhibitory activity, IC50). Format: cell-based. The method, then: as §1, §2
The test system of assay [4] is IL-2-stimulated HEK-Blue IL-2 reporter cells. The assay is described as follows: HEK-Blue IL-2 reporter assay (STAT5-inducible SEAP) for determining selectivity. Format: cell-based. The note with it: 4 ng/mL human recombinant IL-2, 24 hours. The method, then:
as §3, §4

For the next assay, the target named is T1, TYK2 kinase domain (JH1) (Homo sapiens, UniProt P29597).
T1 construct: recombinant purified His or GST-tagged catalytic domain for each enzyme; made in house
T1 sequence (P29597 897-1176 limits assumed): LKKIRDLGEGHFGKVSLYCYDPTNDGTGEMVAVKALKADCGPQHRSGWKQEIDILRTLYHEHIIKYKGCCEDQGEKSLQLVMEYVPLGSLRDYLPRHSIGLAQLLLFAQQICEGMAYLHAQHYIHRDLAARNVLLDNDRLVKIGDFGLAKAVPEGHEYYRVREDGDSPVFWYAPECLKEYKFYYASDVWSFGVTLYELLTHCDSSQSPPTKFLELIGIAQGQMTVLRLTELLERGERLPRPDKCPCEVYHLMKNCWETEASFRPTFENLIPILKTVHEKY
The assay is described as follows: HTRF-based selectivity assay, TYK2 catalytic domain. The assay is classed as biochemical. The note with it: 20 μM ATP. The method, then:
(§5) Example B-2: HTRF-Based Selectivity Assay
(§6) The ability of compounds to inhibit the activity of JAK1, JAK2, JAK3 and TYK2 is measured using a recombinant purified His or GST-tagged catalytic domain for each enzyme (JAK1, JAK2 and TYK2 are generated in-house; JAK3 was purchased from Carna biosciences, Cat #08-046) in an HTRF format biochemical assay. The reactions employs a commercial peptide substrate from Cisbio (Cat #62TK0PEC). The basic assay protocol is as follows: first, 2.5 μL of diluted compounds (4×) in DMSO are dispensed into a 384-well Optiplate. Next, 2.5 μL of enzyme (final concentrations for enzymes are: TYK2—700 ng/mL, JAK1—80.6 ng/mL, JAK2—2.1 ng/mL and JAK3—171.8 ng/mL) is added and incubated at RT for 5-20 min. Finally, 5 μl of mixture of 2×ATP [Final concentration 20 μM for TYK2, 21.43 μM for JAK1, 14.7 μM for JAK2 and 2.12 μM for JAK3]+2× Substrate [Final concentration 217 nM for TYK2, 454.7 nM for JAK1, 200 nM for JAK2 and 257.4 nM for JAK3] is added to 384 well Optiplate. Composition of Kinase assay buffer used in the assay is as follows: HEPES 50 mM, EGTA 1 mM, MgCl2 10 mM, DTT 2 mM, Tween-20 0.01% and water. Then the plates are shaken and then incubated at 26.5° C. for 60 min.
For orientation: TR-FRET usually uses a lanthanide donor and a delayed reading to cut background.

In another assay the target is T2, JAK1 kinase domain (JH1) (Homo sapiens, UniProt P23458).
T2 construct: recombinant purified His or GST-tagged catalytic domain for each enzyme; made in house
The assay is described as follows: HTRF-based selectivity assay, JAK1 catalytic domain. Format: biochemical. To be noted: 21.43 μM ATP, read-out: JAK-JHI (IC50). How it is done:
as §5, §6

The next assay deals with T3, JAK2 kinase domain (JH1) (Homo sapiens, UniProt O60674).
T3 construct: recombinant purified His or GST-tagged catalytic domain for each enzyme; made in house
The assay is described as follows: HTRF-based selectivity assay, JAK2 catalytic domain. The assay is classed as biochemical. To be noted: 14.7 μM ATP. How it is done: as §5, §6

T2 sequence (P23458 875-1153 limits assumed): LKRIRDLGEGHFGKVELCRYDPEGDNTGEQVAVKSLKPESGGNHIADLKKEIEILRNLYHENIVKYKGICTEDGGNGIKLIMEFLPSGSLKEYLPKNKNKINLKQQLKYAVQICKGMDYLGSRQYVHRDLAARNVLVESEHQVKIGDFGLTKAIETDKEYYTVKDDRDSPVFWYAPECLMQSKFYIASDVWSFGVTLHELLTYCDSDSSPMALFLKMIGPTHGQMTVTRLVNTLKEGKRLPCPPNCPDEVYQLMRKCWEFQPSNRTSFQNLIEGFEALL
T3 sequence (O60674 849-1124 limits assumed): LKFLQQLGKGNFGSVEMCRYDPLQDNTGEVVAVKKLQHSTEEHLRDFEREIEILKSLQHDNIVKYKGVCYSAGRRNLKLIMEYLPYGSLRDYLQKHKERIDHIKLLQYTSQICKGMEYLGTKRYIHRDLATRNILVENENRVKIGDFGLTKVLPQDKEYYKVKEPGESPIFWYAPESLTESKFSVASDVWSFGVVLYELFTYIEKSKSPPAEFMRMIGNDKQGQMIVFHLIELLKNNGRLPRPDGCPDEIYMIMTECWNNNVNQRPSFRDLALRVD

Turning to `[2H]C([2H])([2H])NC(=O)c1cnc(NC(=O)C2CC2)cc1Nc1nccc2c1N(C)C([2H])([2H])c1cc(C)nn1-2` [Compound 76, 6-(cyclopropanecarboxamido)-4-((2,5-dimethyl-4,5-dihydropyrazolo[1,5-a]pyrido[3,4-e]pyrazin-6-yl-4,4-d2)amino)-N-(methyl-d3)nicotinamide], the IC50 was under 30 nM in assay [1], 300 to 1000 nM in assay [2], under 30 nM in assay [3] and over 1000 nM in assay [4].
As for `[2H]C([2H])([2H])NC(=O)c1nnc(NC(=O)NC)cc1Nc1nccc2c1N(C)Cc1cc(C)nn1-2` [Compound 79, 4-((2,5-dimethyl-4,5-dihydropyrazolo[1,5-a]pyrido[3,4-e]pyrazin-6-yl)amino)-N-(methyl-d3)-6-(3-methylureido)pyridazine-3-carboxamide], the IC50 in assay [1] was 30 to 300 nM; in assay [2] it was over 1000 nM; in assay [3], under 30 nM; in assay [4], over 1000 nM.
Take `[2H]C([2H])([2H])NC(=O)c1cnc(NC(=O)C2CC2)cc1Nc1cccc2c1N(C)Cc1cc(C)nn1-2` [Compound 53, 6-(cyclopropanecarboxamido)-4-((2,5-dimethyl-4,5-dihydropyrazolo[1,5-a]quinoxalin-6-yl)amino)-N-(methyl-d3)nicotinamide]: the IC50 is under 30 nM in assay [1], 30 to 300 nM in assay [2], under 30 nM in assay [3] and over 1000 nM in assay [4].
On to `[2H]C([2H])([2H])NC(=O)c1nnc(NC(=O)C2CC2)cc1Nc1cccc2c1N(C)C([2H])([2H])c1cc(C)nn1-2` [Compound 56, 6-(cyclopropanecarboxamido)-4-((2,5-dimethyl-4,5-dihydropyrazolo[1,5-a]quinoxalin-6-yl-4,4-d2)amino)-N-(methyl-d3)pyridazine-3-carboxamide], for which the IC50 was under 30 nM in assay [1], 30 to 300 nM in assay [2], under 30 nM in assay [3] and over 1000 nM in assay [4].
`[2H]C([2H])([2H])NC(=O)c1cnc(N2CCN(C(C)C)C2=O)cc1Nc1cccc2c1N(C)C([2H])([2H])c1cn(C)nc1-2` [Compound 63, 4-((2,5-dimethyl-4,5-dihydro-2H-pyrazolo[4,3-c]quinolin-6-yl-4,4-d2)amino)-6-(3-isopropyl-2-oxoimidazolidin-1-yl)-N-(methyl-d3)nicotinamide]: the IC50 is 30 to 300 nM in assay [1], over 1000 nM in assay [2], under 30 nM in assay [3] and over 1000 nM in assay [4].
Consider `CNC(=O)c1nnc(NC(=O)C2CC2)cc1Nc1cccc2c1OCc1cn(C3COC3)nc1-2` [Compound 4, 6-(cyclopropanecarboxamido)-N-methyl-4-((2-(oxetan-3-yl)-2,4-dihydrochromeno[4,3-c]pyrazol-6-yl)amino)pyridazine-3-carboxamide], for which the IC50 in assay [1] is over 1000 nM; in assay [2], over 1000 nM; in assay [3], 30 to 300 nM; in assay [4], 300 to 1000 nM.
`[2H]C([2H])([2H])NC(=O)c1nnc(NC(=O)NC)cc1Nc1cccc2c1N(C)C([2H])([2H])c1cn(C)nc1-2` [Compound 33, 4-((2,5-dimethyl-4,5-dihydro-2H-pyrazolo[4,3-c]quinolin-6-yl-4,4-d2)amino)-N-(methyl-d3)-6-(3-methylureido)pyridazine-3-carboxamide]: the IC50 in assay [1] is under 30 nM; in assay [2] it was 300 to 1000 nM; in assay [3], under 30 nM; in assay [4], over 1000 nM.
Take `[2H]C([2H])([2H])NC(=O)c1nnc(NC(=O)C2CC2)cc1Nc1cccc2c1N(C)Cc1cc(C)nn1-2` [Compound 52, 6-(cyclopropanecarboxamido)-4-((2,5-dimethyl-4,5-dihydropyrazolo[1,5-a]quinoxalin-6-yl)amino)-N-(methyl-d3)pyridazine-3-carboxamide]: the IC50 in assay [1] is under 30 nM; in assay [2], 300 to 1000 nM; in assay [3], under 30 nM; in assay [4] it was over 1000 nM.
Regarding `CNC(=O)c1nnc(Nc2cc(C)nc(C)n2)cc1Nc1cccc2c1N(C)Cc1cn(C)nc1-2` [Compound 34, 4-((2,5-dimethyl-4,5-dihydro-2H-pyrazolo[4,3-c]quinolin-6-yl)amino)-6-((2,6-dimethylpyrimidin-4-yl)amino)-N-methylpyridazine-3-carboxamide], the IC50 was under 30 nM in assay [1], 30 to 300 nM in assay [2], under 30 nM in assay [3] and 30 to 300 nM in assay [4].
For `[2H]C([2H])([2H])NC(=O)c1nnc(NC(=O)NC)cc1Nc1nccc2c1N(C)[C@@H](C)c1cn(C)nc1-2` (single isomer, unassigned) [Compound 80], the IC50 in assay [1] was under 30 nM; in assay [2], over 1000 nM; in assay [3], under 30 nM; in assay [4], over 1000 nM.
For the compound `[2H]C([2H])([2H])NC(=O)c1cnc(NC(=O)C2CC2)cc1Nc1cccc2c1N(C)C([2H])([2H])c1ccnn1-2` [Compound 59, 6-(cyclopropanecarboxamido)-N-(methyl-d3)-4-((5-methyl-4,5-dihydropyrazolo[1,5-a]quinoxalin-6-yl-4,4-d2)amino)nicotinamide], the IC50 in assay [1] was under 30 nM; in assay [2], 30 to 300 nM; in assay [3], under 30 nM; in assay [4], over 1000 nM.
Take `[2H]C([2H])([2H])NC(=O)c1nnc(NC(=O)NC)cc1Nc1nccc2c1N(C)C([2H])([2H])c1cn(C)nc1-2` [Compound 74, 4-((2,5-dimethyl-4,5-dihydro-2H-pyrazolo[4,3-c][1,7]naphthyridin-6-yl-4,4-d2)amino)-N-(methyl-d3)-6-(3-methylureido)pyridazine-3-carboxamide]: the IC50 in assay [1] is under 30 nM; in assay [2], 30 to 300 nM; in assay [3], under 30 nM; in assay [4], over 1000 nM.
Regarding `[2H]C([2H])([2H])NC(=O)c1nnc(NC(=O)C2CC2)cc1Nc1nccc2c1N(C([2H])([2H])[2H])Cc1cn(C)nc1-2` [Compound 67, 6-(cyclopropanecarboxamido)-N-(methyl-d3)-4-((2-methyl-5-(methyl-d3)-4,5-dihydro-2H-pyrazolo[4,3-c][1,7]naphthyridin-6-yl)amino)pyridazine-3-carboxamide], the IC50 was over 1000 nM against TYK2 kinase domain (JH1); over 1000 nM on JAK1 kinase domain (JH1); under 30 nM in assay [1]; over 1000 nM at JAK2 kinase domain (JH1); under 30 nM in assay [3].

The IC50 is the concentration that inhibits the measured activity by half.

These data come from patent publication US12122785B2, “Substituted pyridines, pyridazines, pyrimidines, and 1,2,4-triazines as TYK2 inhibitors” (Sudo Biosciences Limited, priority 2021, dated 2024).
